Data published in US7425580B2, “(Diaryl-methyl)-malononitriles and their use as estrogen receptor ligands” (Wyeth, priority 2004, dated 2008).

Assays:
[1] = test system: NF-κB target genes (MHC invariant chain, VCAM-1, RANTES, TNF-α mRNA); test: Liver inflammatory gene expression (real time RT-PCR) in ovariectomized C57BL/6 mice on atherogenic diet; format: in vivo; conditions: EE 0.01 mg/kg daily
Method: (§1) Ovariectomized C57BL/6 mice (16-20 g) (Taconic) were separated into groups of 8. After 5-7 days of recuperation, the mice were fed a chow diet or an atherogenic diet (15.75% fat, 1.25% cholesterol and 0.5% sodium cholate) (Purina diet #21539). EE or test compound was administered once daily by gavage in a methylcellulose/tween vehicle (0.1 ml per mouse) for 5 weeks. At the end of the experimental period, the liver was collected and uterine wet weight was recorded.
Liver total RNA was prepared by using Trizol reagent (BRL). Estrogen and compound regulation of NF-κB target genes were verified by real time RT-PCR using an ABI PRISM 7700 Sequence Detection System according to the manufacturer's protocol (Applied Biosystems). The data was analyzed using the Sequence Detector v1.7 software (Applied Biosystems) and normalized to GAPDH using the Applied Biosystems primer set.
To determine the ability of estrogens to regulate the development of diet-induced inflammation in the liver, gene expression changes resulting from the atherogenic diet were monitored. Ovariectomized C57BL/6 mice were fed either a chow or atherogenic diet and treated daily with EE (0.01 mg/kg) or test compound (10 mg/kg) (Table 3).

uterine wet weight = test: Uterine wet weight increase in ovariectomized C57BL/6 mice; format: in vivo; conditions: EE 0.01 mg/kg/day, test compound 10 mg/kg/day, gavage, 5 weeks; for Uterine Wet Weight Increase, Fold Increase: compared to vehicle control
Method: as §1, with “recorded. To determine the ability of estrogens to regulate the development of diet-induced inflammation in the liver, gene expression changes resulting from the atherogenic diet were monitored. Ovariectomized C57BL/6 mice were fed either a chow or atherogenic diet and treated daily with EE (0.01 mg/kg) or test compound (10 mg/kg) (Table 3).” for “recorded.”

IL-6 = IL-6 expression (ELISA) in Ad5-wt-ER infected HAECT-1 cells (IL-1β stimulated); format: cell-based, human; conditions: for IL-6 Efficacy: relative to maximal inhibition observed with E2
Method: (§2) T-175 flasks of 100% confluent HAECT-1 cells (immortalized human aortic endothelial cells) were washed with 8 ml of HBSS (HEPES buffered saline solution) and infected for four hours with 6 ml of a 1:10 dilution of Ad5-wt-hERα virus (an adenovirus transfection vector that mediates CMV promoter driven expression of human ERα) in phenol red free Endothelial Cell Basal medium (Clonetics, San Diego Calif., Catalog # CC-3129) containing 0.25% bovine serum albumin (EBM-BSA). After four hours, cells were washed with EBM-BSA and incubated overnight in the same medium. Following overnight incubation, cells were washed with EBM-BSA and infected for 2 hours with 6 ml of a 1:10 dilution of Ad5-3×(NFKκB).Luc virus (Adenovirus luciferase expression vector driven by 3 repeats of the MHC NFκβ site 5′ to the thymidine kinase promoter) in EBM-BSA. After two hours, cells were washed and incubated at 34° C. for 1 hour. Cells were then washed, trypsinized, counted and resuspended in 95% FBS/5% dimethylsulfoxide at a concentration of 4×10^6 cells/ml, frozen as 1 or 5 ml aliquots in cryo-vials and stored at −150° C. Control (no ER infection) cells were processed as above without Ad5-wt-hERα virus infection.
(§3) ERα infected HAECT-1 cells or control cells were thawed, diluted 42× in warm EBM-BSA, plated into 96-well plates at 0.1 ml/well and incubated for 4 h at 34° C. Test compounds were added to the cells as 2× stocks in EBM-BSA containing 2 ng/ml IL-1β (R&D Systems) and plates were returned to the incubator (34° C.). After 15-20 h, 100 μl aliquots of media were removed from the cells and assayed for IL-6 content using a BioSource human IL-6 ELISA Kit. Cells were subsequently washed with 300 μl of Dulbecco's phosphate buffered saline and lysed in 50 μl of Cell Culture Lysis Reagent (Promega). Luciferase was determined on a Wallac Victor^2 Luminometer (Gaithersburg, Md.) using 10 μl of lysate and mixing with 100 μl of Promega Luciferase Assay reagent. Creatine kinase was determined from the rate of increase in A340 following addition of 100 μl of CK assay reagent (Sigma, cat. No 47-10) to the remainder of the cell lysate.
(§4) For IC50 and EC50 calculations, mean IL-6, luciferase or CK values versus log10 of the compound concentration were fitted to a four parameter logistic equation. The IC50/EC50 value, ‘Hill slope’, upper and lower limits of the curve were iteratively estimated.

NF-κB [2] = test: NF-κB luciferase reporter in non ER infected HAECT-1 cells; format: cell-based, human
Method: T-175 flasks of 100% confluent HAECT-1 cells (immortalized human aortic endothelial cells) were washed with 8 ml of HBSS (HEPES buffered saline solution) and infected for four hours with 6 ml of a 1:10 dilution of Ad5-wt-hERα virus (an adenovirus transfection vector that mediates CMV promoter driven expression of human ERα) in phenol red free Endothelial Cell Basal medium (Clonetics, San Diego Calif., Catalog # CC-3129) containing 0.25% bovine serum albumin (EBM-BSA). After four hours, cells were washed with EBM-BSA and incubated overnight in the same medium. […] Cells were then washed, trypsinized, counted and resuspended in 95% FBS/5% dimethylsulfoxide at a concentration of 4×10^6 cells/ml, frozen as 1 or 5 ml aliquots in cryo-vials and stored at −150° C. […]
ERα infected HAECT-1 cells or control cells were thawed, diluted 42× in warm EBM-BSA, plated into 96-well plates at 0.1 ml/well and incubated for 4 h at 34° C. […] Luciferase was determined on a Wallac Victor^2 Luminometer (Gaithersburg, Md.) using 10 μl of lysate and mixing with 100 μl of Promega Luciferase Assay reagent. Creatine kinase was determined from the rate of increase in A340 following addition of 100 μl of CK assay reagent (Sigma, cat. No 47-10) to the remainder of the cell lysate. […]

creatine kinase = test: Creatine kinase expression in Ad5-wt-ER infected HAECT-1 cells; format: cell-based, human; conditions: for IC50: Homo sapiens, HAECT1, stimulation of CK; for CK Efficacy: relative to maximal stimulation observed with E2
Method: as §2, §3, §4

NF-κB [3] = test: NF-κB luciferase reporter in Ad5-wt-ER infected HAECT-1 cells (IL-1β stimulated); format: cell-based, human; conditions: for Emax: relative to maximal inhibition observed with E2, read-out: NF-κB Efficacy
Method: as §2, §3, §4

[4] = Ad5-wt-ER infected HAECT-1 cells
[5] = Homo sapiens, HAECT1, Ad5-wt-ER infected HAECT-1 cells

IC50 (IL-6; [5]) | IC50 (creatine kinase) | IC50 (NF-κB [3]; [5]) | Compound | IL-6 Efficacy (IL-6; [4]) | CK Efficacy (creatine kinase) | Emax (NF-κB [3]; [5]) | other results
1040 nM | – | 853 nM | COc1cccc(C(c2cccc3ccccc23)C(C#N)C#N)c1 (stereo not drawn) [Ex. 3, 2-[(3-Methoxyphenyl)(1-naphthyl)methyl]malononitrile] | 92% | – | 138% | –
– | – | 1660 nM | Cc1ccc(C(c2cccc3ccccc23)C(C#N)C#N)cc1 (stereo not drawn) [Ex. 5, 2-[(4-Methylphenyl)(1-naphthyl)methyl]malononitrile] | – | – | 154% | –
– | – | 1640 nM | COc1ccc(C(c2cccc3ccccc23)C(C#N)C#N)cc1 (stereo not drawn) [Ex. 6, 2-[(4-Methoxyphenyl)(1-naphthyl)methyl]malononitrile] | – | – | 137% | –

More lines, now with the values behind:

Compound | IC50 (IL-6; [5]) | IC50 (creatine kinase) | IC50 (NF-κB [3]; [5]) | IL-6 Efficacy (IL-6; [4]) | CK Efficacy (creatine kinase) | Emax (NF-κB [3]; [5]) | other results
C#C[C@]1(O)CC[C@H]2[C@@H]3CCc4cc(O)ccc4[C@H]3CC[C@@]21C [EE, 17α-ethinyl-17β-estradiol, reference compound] | – | – | – | – | – | – | Atherogenic diet induction of mRNA for MHC invariant chain, VCAM-1, RANTES and TNF-α in liver [1]: strongly suppressed; Uterine Wet Weight Increase, Efficacy (uterine wet weight): 100%; Uterine Wet Weight Increase, Fold Increase (uterine wet weight): 5.0
COc1ccccc1C(c1cccc2ccccc12)C(C#N)C#N (stereo not drawn) [Ex. 1, 2-[(2-Methoxyphenyl)(1-naphthyl)methyl]malononitrile] | 1220 nM | 8.7 nM | – | 118% | 27% | – | NF-κB IC50 (NF-κB [2]): inactive
Cc1ccccc1C(c1cccc2ccccc12)C(C#N)C#N (stereo not drawn) [Ex. 4, 2-[(2-Methylphenyl)(1-naphthyl)methyl]malononitrile] | 1010 nM | – | – | 127% | – | – | –
COc1ccccc1C(c1cccc2ccccc12)C(C)(C#N)C#N (stereo not drawn) [Ex. 7, 2-[(2-Methoxyphenyl)(1-naphthyl)methyl]-2-methylmalononitrile] | 24 nM | 30.7 nM | 9.9 nM | 144% | 28% | 98% | melting point: 175 to 177 °C; Uterine Wet Weight Increase, Efficacy (uterine wet weight): 18%; Uterine Wet Weight Increase, Fold Increase (uterine wet weight): 2.2; NF-κB IC50 (NF-κB [2]): inactive; IC50 (NF-κB [3]; [4]): 17.5 nM
N#CC(C#N)C(c1cccc2ccccc12)c1cccc2ccccc12 [Ex. 8, 2-[Di(1-naphthyl)methyl]malononitrile] | 560 nM | – | 768 nM | 152% | – | 176% | melting point: 179 to 181 °C; IC50 (NF-κB [3]; [4]): 581 nM
C[C@]12CC[C@@H]3c4ccc(O)cc4CC[C@H]3[C@@H]1CC[C@@H]2O [Example E2, 17β-estradiol, reference compound] | – | 5.8 nM | – | 100% | 100% | – | IC50 (IL-6; [4]): 1.7 nM
